Assay results: article PMC12186257, “Serendipitous and Systematic Chemoproteomic Discovery of MBLAC2, HINT1, and NME1‑4 Inhibitors from Histone Deacetylase-Targeting Pharmacophores” (ACS Chemical Biology, 2025)
Blank lines part the entries; values can stand above or below the molecule they belong to.

How the values were obtained:
MBLAC2 = target: T1, MBLAC2 (Homo sapiens, UniProt Q68D91); experiment: chemoproteomic competition assay (MV4-11/SW620 lysate, iA/iC/iQ beads, MS readout); assay type: binding; details: for MBLAC2 binding / Kd: nine-dose competition assay; for EC50: focused library profiling; for Kd: read-out: KDapp MBLAC2
T1 construct: incubated at increasing concentrations with a mixture of lysates of MV4–11 and SW620 cells; endogenous in cells; host or cells: mixed lysate of MV4-11 and SW620 cells
T1 sequence (Q68D91 1-279): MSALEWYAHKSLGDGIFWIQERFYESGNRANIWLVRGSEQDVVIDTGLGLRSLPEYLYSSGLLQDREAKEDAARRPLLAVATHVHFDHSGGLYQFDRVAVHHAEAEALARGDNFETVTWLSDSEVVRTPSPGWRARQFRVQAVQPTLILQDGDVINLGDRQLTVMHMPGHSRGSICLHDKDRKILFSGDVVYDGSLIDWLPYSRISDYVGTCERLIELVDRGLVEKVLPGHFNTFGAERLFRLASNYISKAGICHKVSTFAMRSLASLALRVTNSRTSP
Procedure: (§1) MBLAC2 is a metalloenzyme predicted to harbor one or two Zn^2+ ions in its active site. […] In this assay, compounds of interest are incubated at increasing concentrations with a mixture of lysates of MV4–11 and SW620 cells. The compound-treated lysates are then mixed with bead-immobilized hydroxamic acid-containing compounds iA, iC, and iQ (immobilized Quisinostat), which pull down compound-binding proteins such as HDACs, MBLAC2, ISOC1/2, ALDH2, and GATD3A (Figure a) that can be identified and quantified by mass spectrometry (MS). Proteins targeted by the library compounds in a preincubation step are prevented from being pulled down by the immobilized probes, leading to a dose-dependent reduction in MS signal. Initially, 12 metal-chelating compounds were profiled at two concentrations (10 μM and 100 μM) (Figure S3).
(§2) Chemoproteomic competition assays
Sample preparation. For the MBLAC2 and HDAC inhibitor competition assay, the generation of affinity matrices, lysate generation, pulldown assay, and sample preparation were performed as described in […]
detail in REF1. […]
(§3) LC-MS/MS. The different sample types were measured with different LC-MS/MS settings. MBLAC2 2-dose competition assays were measured with the Lumos1 setup, MBLAC2 9-dose competition assays were measured with the Lumos2 setup, and kinobeads assays were measured with the Eclipse setup.
(§4) Peptides were analyzed via LC–MS/MS on a Dionex Ultimate3000 nano HPLC coupled to either one of two Orbitrap Fusion Lumos mass spectrometers, or to an Orbitrap Eclipse mass spectrometer, operated via the Thermo Scientific Xcalibur software.
(§5) In the all setups, peptides were loaded on a trap column (100 μm × 2 cm, packed in-house with Reprosil-Gold C18 ODS-3 5 μm resin, Dr. Maisch, Ammerbuch) and washed with 5 μL/min solvent A (0.1% formic acid in HPLC grade water) for 10 min. Peptides were then separated on an analytical column (75 μm × 40 cm, packed in-house with Reprosil-Gold C18 3μm resin, Dr. Maisch, Ammerbuch) using a 50 min gradient ranging from 4 to 32% solvent B (0.1% formic acid, 5% DMSO in acetonitrile) in solvent A (0.1% formic acid, 5% DMSO in HPLC grade water) at a flow rate of 300 nL/min.
(§6) The mass spectrometers were operated in data-dependent mode, automatically switching between MS1 and MS2 spectra. MS1 spectra were acquired over a mass-to-charge (m/z) range of 360–1300 m/z at a resolution of 60,000 (at m/z 200) in the Orbitrap using a maximum injection time of 50 ms and an automatic gain control (AGC) target value of 4e5.
(§7) In Lumos settings, up to 12 peptide precursors were isolated in (isolation width of 1.2 Th for Lumos1 and 1.7 for Lumos2, maximum injection time of 75 ms, AGC value of 1e5 for Lumos1 and 2e5 for Lumos2), fragmented by HCD using 30% normalized collision energy (NCE) and analyzed in the Orbitrap at a resolution of 15,000 (Lumos2) or 30,000 (Lumos1). The dynamic exclusion duration of fragmented precursor ions was set to 20 s (Lumos1) or 30 s (Lumos2). In Eclipse measurements, a cycle time of 2 s was chosen. Peptides were isolated in the quadrupole with an isolation offset of 1.2 (isolation width of 1.2 Th, maximum injection time of 54 ms, AGC target of 200%) and fragmented by HCD with an NCE of 30% and analyzed in the Orbitrap at a resolution of 30,000. The dynamic exclusion on the Eclipse was set to 20 s.
Data analysis. The data analysis of MBLAC2/HDAC inhibitor competition assays was performed as described in detail in REF1. LFQ intensity values were used for the calculation of relative residual binding to the affinity matrix. […]

[1] = system: cell proliferation or fitness; experiment: alamar blue cell metabolic activity assay with MBLAC2 inhibitors; assay type: cell-based; details: 72h, five concentrations
Source text: Our earlier observation that MBLAC2 inactivation leads to the upregulation of extracellular vesicles (EVs), combined with evidence of MBLAC2’s association with late endosomes and membrane processes, , prompted us to hypothesize that MBLAC2 inactivation might impair endocytosis. To test this hypothesis, we measured clathrin-mediated endocytosis of fluorescently labeled transferrin (TF) in the presence and absence of MBLAC2 inhibitors. […] Thus, the precise biological roles of MBLAC2 remain elusive. However, we anticipate that the selective compounds identified in this study will serve as valuable tools for elucidating the cell biological functions of MBLAC2 in future research.
Fig. S6| Characterization of MBLAC2 inhibitors. a, 9-dose competition assay of MBLAC2 selective inhibitors KV-65 and KV-79. b, Impact of MBLAC2i on cell metabolic activity assessed in an alamar blue assay. Cells were treated in triplicates with five concentrations of MBLAC2i and a DMSO vehicle control for 72h. c, Clathrin-mediated endocytosis assay based on measurement of fluorescent transferrin uptake. Dynasore and Pitstop-2 serve as positive controls. HeLa cells were pre-incubated with 100 µM Dynasore, 2 µM KV65, or 2 µM KV79 for 20 h before the microscopy readout. 30 µM Pitstop-2 was added only for 15 min before readout. […]

HeLa cells = experiment: clathrin-mediated endocytosis of fluorescently labeled transferrin; assay type: cell-based; details: HeLa cells, 2 µM, 20 h
Procedure: Given that local GTP production by NME1 and NME2 is essential for fueling dynamin-driven endocytosis, we investigated the effect of KV-50-mediated NME1/2 inhibition on fluorescent transferrin (TF) uptake in cells. HeLa cells were treated with KV-50 or known endocytosis inhibitors (Pitstop-2 and Dynasore), and surface-bound and internalized fluorescent TF were quantified.

[2] = system: compound-binding proteins such as HDACs, MBLAC2, ISOC1/2, ALDH2, and GATD3A; experiment: chemoproteomic competition assay, proteome-wide target binding profile; design: species or system human; details: dose-dependent competition
Procedure: as §1, §2
Sample preparation. For the MBLAC2 and HDAC inhibitor competition assay, the generation of affinity matrices, lysate generation, pulldown assay, and sample preparation were performed as described in detail in REF1. For the kinobeads assay, the generation of affinity matrices, lysate generation, pulldown assay, and sample preparation were performed as described in detail in REF2.
as §3, §4, §5, §6
as §7, with “HCD with an NCE of 30% and analyzed in the Orbitrap at a resolution of 30,000. The dynamic exclusion on the Eclipse was set to 20 s.” left out

[3] = target: recombinant HINT1 (hHint1) (Homo sapiens, UniProt P49773); experiment: HINT1 enzyme activity assay (TrpA hydrolysis, fluorescence); assay type: biochemical; details: hHint1 0.002 µM, TrpA 0.5 µM, 25 °C
recombinant HINT1 (hHint1), sequence (P49773 whole entry): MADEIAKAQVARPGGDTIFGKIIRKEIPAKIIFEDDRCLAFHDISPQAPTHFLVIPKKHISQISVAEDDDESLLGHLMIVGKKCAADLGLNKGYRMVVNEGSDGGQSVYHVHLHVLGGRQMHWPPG
Source text: While the biologically relevant substrates of HINT1 have not been clearly elucidated, the protein has been implicated in opioid receptor signaling, − regulation of the melanoma-associated transcription factor MITF, , and DNA damage repair. These functions position HINT1 as a potential pharmacological target for treating conditions such as opioid resistance or melanoma. The only reported HINT1-targeting pharmacophores are nucleoside-based nonhydrolyzable substrate analogs, such as the carbamate TrpGC (Figure a). , We evaluated the inhibitory potential of KV-24 and KV-30 in enzyme activity assays using recombinant HINT1. […] This discrepancy could be attributed to reduced affinity for the recombinant enzyme due to the absence of post-translational modifications (PTMs), cofactors, or interaction partners that enhance drug binding. Alternatively, it might result from substrate dilution in the lysate, whereas high substrate concentrations in the enzyme activity assay require the inhibitor to compete more effectively.
Mouse brain proteomics – LC-MS/MS. Proteome analysis of brain mouse tissue samples was performed on a micro-flow LC timsTOF HT setup described in detail in REF14. Liquid chromatography in micro-flow mode was performed on a Vanquish Neo UHPLC System (Thermo Fisher Scientific) at a flow rate of 50 µL/min. […] 10 µg of peptide mix was injected and analyzed using a 58 min gradient starting at 1% B up to 45% B (1 h method). […]
Mouse proteomics data analysis. The data files were analyzed with DIA-NN 1.8.1. […] The resulting protein group tables were further analyzed by Perseus 1.6.2.2. […]
CME of transferrin and confocal microscopy analyses.For transferrin uptake experiments HeLa cells were seeded on Matrigel-coated coverslips, and incubated with 0.1 % DMSO, or with 100 µM dynasore, 20 µM KV50, 2 µM KV65, or 2 µM KV79 in media containing 10% FCS at 37°C for 20 h. […] All inhibitor treatments were performed in duplicate, to enable quantification of surface levels of transferrin receptors, and to assess the capability of transferrin receptor endocytosis. […]

Toxoplasma gondii = system: Toxoplasma gondii; design: method as in PMID 33360687, PMID 35483428, PMID 38431113, PMID 29414107; details: in human host cells; cited from earlier work

- EC50 (MBLAC2): 83 nM
Molecule: O=C(NO)c1ccc(CN2c3ccccc3Sc3ccccc32)cc1 [KV-46]

- MBLAC2 binding (MBLAC2): potently bound MBLAC2
- Kd (MBLAC2): 75 nM
Molecule: O=C(NO)c1ccc(CN2CCCc3cc(Cl)ccc32)cc1 [SW-100]

The next lines start with the molecule.

Molecule: O=C(NO)c1ccc(Cn2c(=O)n(CCc3ccccc3)c(=O)c3ccccc32)cc1 [Compound J22352]
- MBLAC2 binding (MBLAC2): potently bound MBLAC2

Molecule: O=C(NO)c1ccc(CN2c3ccccc3S(=O)(=O)c3ccccc32)cc1 [KV-65]
- concentration up to which cell proliferation or fitness not affected [1]: > 10 µM
- EC50 (MBLAC2): 37 nM
- TF uptake (HeLa cells): not statistically significant

Molecule: O=C(NO)c1ccc(CN2c3ccccc3Sc3ccc(C(F)(F)F)cc32)cc1 [KV-79]
- concentration up to which cell proliferation or fitness not affected [1]: > 10 µM
- selectivity compared to HDACs (MBLAC2; abstract): over 60 fold
- EC50 (MBLAC2): 25 nM
- TF uptake (HeLa cells): not statistically significant

Molecule: O=C(CCCCCCC(=O)NO)NO [SBHA, suberoyl-bis-hydroxamic acid, reference compound]
- targets / off-targets bound [2]: bind off-targets such as ISOC1/2, GATD3A, and ALDH2

Molecule: CN(CC(=O)N(Cc1ccc(C2CCCCC2)cc1)c1ccc(C(=O)NO)cc1)S(=O)(=O)c1c(F)c(F)c(F)c(F)c1F [SH5–07]
- Kd (MBLAC2): ~800 nM

Molecule: Cn1c(CCCCCCC(=O)NO)nc2cc(N(CCCl)CCCl)ccc21 [Tinostamustine, reference compound]
- targets / off-targets bound [2]: bind off-targets such as ISOC1/2, GATD3A, and ALDH2

Molecule: Nc1nc2c(ncn2[C@@H]2O[C@H](COC(=O)NCCc3c[nH]c4ccccc34)[C@@H](O)[C@H]2O)c(=O)[nH]1 [TrpGC, reference compound]
- IC50 [3]: 9.1 µM

Molecule: CN1CCc2c(c3ccccc3n2Cc2ccc(C(=O)NO)cc2)C1 [Tubastatin A, reference compound]
- inhibition of proliferation of protozoans (Toxoplasma gondii): potently inhibit the proliferation

Molecule: ACY-1083
- MBLAC2 binding (MBLAC2): potently bound MBLAC2
